Measured values as given in patent EP4534528A1, “NOVEL SULFANONE DERIVATIVE OR PHARMACEUTICALLY ACCEPTABLE SALT THEREOF, AND USE THEREOF” (Korea Institute of Science and Technology, priority 2022, dated 2023).
Where a name gives a salt, the structure may show the parent alone. Read-outs that look alike come from different tables or passages of the source.

What was measured:
NO (nitric oxide) = NO (nitric oxide) inhibitory activity in LPS-treated BV-2 microglial cells; assay type: cell-based, mouse; settings: for activity at 0.1 µM / activity at 1 µM / activity at 10 µM: Mus musculus; for activity at 0.1 µM: read-out: Amount of NO (% of control) 0.1 µM; for activity at 1 µM: read-out: Amount of NO (% of control) 1 µM; for activity at 10 µM: read-out: Amount of NO (% of control) 10 µM
[1] = Metabolic stability in liver microsomes; assay type: in vitro ADME; settings: mouse, pH 6.4, 30 minutes at 37°C
in vitro = in vitro ADME, Human; settings: for remaining at 0.5 h, 1 µM: human, pH 6.4, liver microsomes 0.5 mg/mL, 30 minutes at 37°C
Nrf2 = Nrf2 functional cell-based assay (DiscoveRx); settings: U2OS cells, incubated for 6 hours, luminescence; read-out: Nrf2 activation EC50
U2OS cells = settings: known from the literature; cited from earlier work
[2] = not told; cited from earlier work
[3] = background statement; cited from earlier work
[4] = Metabolic stability in liver microsomes; assay type: in vitro ADME; settings: rat, pH 6.4, 30 minutes at 37°C
Protocol: Then, an NADPH regeneration system solution was added thereto and the mixed solution was incubated at 37°C for 30 minutes. […]

[5] = 10 µM compound, BV-2 cells, LPS 1 µg/ml, 24 hours

Compound: N=S(=O)(/C=C/c1ncccc1F)c1ccccc1Cl (stereo not drawn) [Compound 1-3, (E)-(2-chlorophenyl)(2-(3-fluoropyridin-2-yl)vinyl)(imino)-λ^6-sulfanone]
- activity at 0.1 µM (NO (nitric oxide); BV-2, 24 h): 90.9%
- activity at 1 µM (NO (nitric oxide); BV-2, 24 h): 51.4%
- activity at 10 µM (NO (nitric oxide); BV-2, 24 h): < 3%

Compound: COc1ccc(S(=N)(=O)/C=C/c2ccccn2)cc1 (stereo not drawn) [Compound 1-2, (E)-imino(4-methoxyphenyl)(2-(pyridin-2-yl)vinyl)-λ^6-sulfanone]
- remaining at 0.5 h, 1 µM [1]: 59%
- amount of drug remaining after incubation with microsomes (in words) (in vitro; 30 minutes): remained at a high concentration
- remaining at 0.5 h, 1 µM (in vitro): 76%

Compound: C[Si](C)(C)N=S(=O)(/C=C/c1ccccc1Cl)c1ccncc1F (stereo not drawn) [Compound 1-46, (E)-(2-chlorostyryl)(3-fluoropyridin-4-yl)((trimethylsilyl)imino)-λ^6-sulfanone]
- EC50 (Nrf2): 0.12 µM

Compound: COc1ccccc1S(=O)(/C=C/c1ccccc1Cl)=NC#N (stereo not drawn) [Compound 1-57, (E)-N-((2-chlorostyryl)(2-methoxyphenyl)(oxo)-λ^6-sulfanylidene)cyanamide]
- EC50 (Nrf2): 0.075 µM

Compound: COc1cccc(S(=N)(=O)/C=C/c2ncccc2F)c1 (stereo not drawn) [Compound 1-7, (E)-(2-(3-fluoropyridin-2-yl)vinyl)(imino)(3-methoxyphenyl)-λ^6-sulfanone]
- activity at 10 µM (NO (nitric oxide); BV-2, 24 h): 1.48%

Compound: COC(=O)/C=C/C(=O)OC [DMF, Dimethyl fumarate]
- EC50 (Nrf2): 4.33 µM

Compound: (E)-(2-chlorophenyl)(imino)(2-(2,4,6-trichloropyrimidin-5-yl)vinyl)-λ^6-sulfanone [Compound 1-14]
- EC50 (Nrf2): 3.28 µM
- Amount of NO (% of control) 10 µM (NO (nitric oxide); [5]): < 3.00 % of control

Compound: C[S+]([O-])CCCCN=C=S (stereo not drawn) [Sulforaphane, 1-isothiocyanato-4-methylsulfinylbutane]
- concentrations at which high toxicity is exhibited (U2OS cells): ≥ 5 µM
- blood-brain barrier permeability [2]: very low
- activity at 0.1 µM (NO (nitric oxide); 0.1 µM compound, BV-2 cells, LPS 1 µg/ml, 24 hours): 107%
- activity at 1 µM (NO (nitric oxide); 1 µM compound, BV-2 cells, LPS 1 µg/ml, 24 hours): 79.9%
- activity at 10 µM (NO (nitric oxide); [5]): 14.9%
- time until it disappears when administered to the body [3]: ≤ 1 h

Compound: O=S(=O)(/C=C/c1ncccc1Cl)c1ccccc1F
- remaining at 0.5 h, 1 µM [1]: 19%
- remaining at 0.5 h, 1 µM (in vitro): 72%
- remaining at 0.5 h, 1 µM [4]: 23%

Compound: O=S(=O)(/C=C/c1ncccc1Cl)c1ccccc1Cl
- remaining at 0.5 h, 1 µM [1]: 4.5%
- remaining at 0.5 h, 1 µM (in vitro): 66%

Compound: N=S(=O)(/C=C/c1cccnc1)c1ccccc1Cl (stereo not drawn) [Compound 1-12, (E)-(2-chlorophenyl)(imino)(2-(pyridin-3-yl)vinyl)-λ^6-sulfanone]
- activity at 10 µM (NO (nitric oxide); [5]): 24.8%
